Our source for the IC50 values is patent US9539260B2, “Dihydro-benzo-oxazine and dihydro-pyrido-oxazine derivatives” (Novartis AG, priority 2012, dated 2017).

Assay [1] addresses myristoylated catalytic subunit of human PI3K delta in Rat-1 cells (Homo sapiens (Human), UniProt O00329). As to the kind of experiment: PI3K-mediated Akt 1/2 (S473) phosphorylation in Rat-1 cells, PI3K delta. Format: cell-based. Conditions: Rat-1 cells overexpressing myristoylated human PI3K delta; p-Akt (S473) AlphaScreen SureFire; read-out: Cell PI3Kδ/ IC50. The method, then:
2.1 Phosphoinositide-3 Kinase (PI3K)-Mediated Akt 1/2 (S473) Phosphorylation in Rat-1 Cells
Rat-1 cells stably overexpressing a myristoylated form of the catalytic subunit of human phosphoinositide-3 kinase (PI3K) alpha, beta or delta were plated in 384-well plates at a density of 7500 (PI3K alpha), 6200 (PI3K beta), or 4000 (PI3K delta) cells in 30 ul complete growth medium (Dulbecco's modified Eagle's medium (DMEM high glucose) supplemented with 10% (v/v) fetal bovine serum, 1% (v/v) MEM non essential amino acids, 10 mM HEPES, 2 mM L-glutamine, 10 μg/mL puromycin and 1% (v/v) Penicillin/Streptomycin) and were incubated at […]/5% CO2/95% humidity for 24 h. Compounds were diluted in 384-well compound plates to obtain 8-point serial dilutions for 40 test compounds in 90% DMSO, as well as 4 reference compounds plus 16 high controls and 16 low (inhibited) controls. Predilution plates were prepared by dispensing pipetting 250 nl of compound solutions into 384-well polypropylen plates using a Hummingwell nanoliter dispensor. Compounds were prediluted by the addition of 49.75 ul complete growth medium. 10 ul of prediluted compound solution were transferred to the cell plate using a 384-well pipettor, resulting in a final DMSO concentration of 0.11%.
Cells were incubated for 1 h at […]/5% CO2/95% humidity. The supernatant was removed, the cells were lysed in 20 ul of lysis buffer for AlphaScreen® SureFire® detection.
For detection of p-AKT(Ser473), the SureFire® p-Akt 1/2 (Ser473) Assay Kit (PerkinElmer, U.S.A) was used. 5 ul of cell lysate was transferred to 384-well low volume Proxiplates for detection using a 384-well pipettor. Addition of AlphaScreen® SureFire® reagents was done according to the manufacturer's protocol. First, 5 ul of reaction buffer plus activation buffer mix containing AlphaScreen® acceptor beads was added, the plate was sealed, and incubated on a plate shaker for 2 hours at room temperature. Second, 2 ul of dilution buffer containing AlphaScreen® donor beads was added, and the plate was incubated on plate shaker as above for a further 2 hours. The plate was read on an AlphaScreen® compatible plate reader, using standard AlphaScreen® settings.
On the technique in general: Bead proximity is the source of the signal in Alpha formats.

The target in assay [2] is PI3K delta (Homo sapiens (Human), UniProt O00329). The assay can be described thus: Enzymatic PI3K delta isoform inhibition (lipid kinase activity, Kinase-Glo luminescence). Format: biochemical. Conditions: Enzymatic assay. An outline of the steps:
(§1)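 ATP-depletion format: 10 nM PI3K with 5 μg/mL phosphatidylinositol and 2 μM ATP, run to ~50% ATP consumption, then Kinase-Glo added and remaining ATP read by luminescence after 5 min. IC50 from 4-parameter logistic fit, typically over 8 concentrations 10–0.003 μM.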

Assay [3] has as its target PI3K alpha (Homo sapiens (Human), UniProt P42336). As to the kind of experiment: Enzymatic PI3K alpha isoform inhibition (lipid kinase activity, Kinase-Glo luminescence). In kind it is biochemical. Conditions: Enzymatic assay. An outline of the steps:
as §1
In general terms: Kinase-Glo measures the ATP left after a reaction by luminescence.

pIC50: −log10 of the molar value.

PI3K alpha, sequence (P42336 other isoform, or with tags, fused parts or gaps): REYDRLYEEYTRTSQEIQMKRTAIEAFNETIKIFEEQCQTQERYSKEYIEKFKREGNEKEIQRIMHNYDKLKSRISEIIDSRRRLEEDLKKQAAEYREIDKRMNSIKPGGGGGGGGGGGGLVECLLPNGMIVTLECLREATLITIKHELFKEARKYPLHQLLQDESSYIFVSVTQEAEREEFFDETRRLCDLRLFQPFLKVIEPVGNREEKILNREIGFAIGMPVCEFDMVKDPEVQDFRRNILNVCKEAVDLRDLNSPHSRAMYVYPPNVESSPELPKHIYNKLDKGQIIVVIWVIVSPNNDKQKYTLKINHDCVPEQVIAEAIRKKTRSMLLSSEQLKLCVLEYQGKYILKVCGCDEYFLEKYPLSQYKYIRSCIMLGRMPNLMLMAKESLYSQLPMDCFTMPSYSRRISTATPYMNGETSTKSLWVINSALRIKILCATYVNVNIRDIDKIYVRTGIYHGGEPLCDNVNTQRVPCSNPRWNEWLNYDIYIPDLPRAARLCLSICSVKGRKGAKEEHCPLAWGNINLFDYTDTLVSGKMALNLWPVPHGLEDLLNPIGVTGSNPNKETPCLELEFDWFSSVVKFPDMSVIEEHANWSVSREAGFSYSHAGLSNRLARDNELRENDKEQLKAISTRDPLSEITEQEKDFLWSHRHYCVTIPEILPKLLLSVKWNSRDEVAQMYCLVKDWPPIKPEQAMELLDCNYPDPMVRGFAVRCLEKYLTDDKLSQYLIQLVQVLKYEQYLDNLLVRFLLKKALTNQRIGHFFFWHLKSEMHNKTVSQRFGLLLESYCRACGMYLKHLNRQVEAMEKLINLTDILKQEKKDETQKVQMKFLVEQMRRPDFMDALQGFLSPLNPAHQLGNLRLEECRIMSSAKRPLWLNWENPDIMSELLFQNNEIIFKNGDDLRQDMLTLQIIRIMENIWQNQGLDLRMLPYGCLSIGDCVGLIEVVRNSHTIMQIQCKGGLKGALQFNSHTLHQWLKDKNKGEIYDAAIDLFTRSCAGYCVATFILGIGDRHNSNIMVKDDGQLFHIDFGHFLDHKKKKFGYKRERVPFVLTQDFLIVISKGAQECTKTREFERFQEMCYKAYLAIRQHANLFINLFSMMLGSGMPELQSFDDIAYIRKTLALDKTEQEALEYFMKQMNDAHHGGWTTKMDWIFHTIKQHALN
PI3K delta, sequence (O00329 other isoform, or with tags, fused parts or gaps linker GGGGGG): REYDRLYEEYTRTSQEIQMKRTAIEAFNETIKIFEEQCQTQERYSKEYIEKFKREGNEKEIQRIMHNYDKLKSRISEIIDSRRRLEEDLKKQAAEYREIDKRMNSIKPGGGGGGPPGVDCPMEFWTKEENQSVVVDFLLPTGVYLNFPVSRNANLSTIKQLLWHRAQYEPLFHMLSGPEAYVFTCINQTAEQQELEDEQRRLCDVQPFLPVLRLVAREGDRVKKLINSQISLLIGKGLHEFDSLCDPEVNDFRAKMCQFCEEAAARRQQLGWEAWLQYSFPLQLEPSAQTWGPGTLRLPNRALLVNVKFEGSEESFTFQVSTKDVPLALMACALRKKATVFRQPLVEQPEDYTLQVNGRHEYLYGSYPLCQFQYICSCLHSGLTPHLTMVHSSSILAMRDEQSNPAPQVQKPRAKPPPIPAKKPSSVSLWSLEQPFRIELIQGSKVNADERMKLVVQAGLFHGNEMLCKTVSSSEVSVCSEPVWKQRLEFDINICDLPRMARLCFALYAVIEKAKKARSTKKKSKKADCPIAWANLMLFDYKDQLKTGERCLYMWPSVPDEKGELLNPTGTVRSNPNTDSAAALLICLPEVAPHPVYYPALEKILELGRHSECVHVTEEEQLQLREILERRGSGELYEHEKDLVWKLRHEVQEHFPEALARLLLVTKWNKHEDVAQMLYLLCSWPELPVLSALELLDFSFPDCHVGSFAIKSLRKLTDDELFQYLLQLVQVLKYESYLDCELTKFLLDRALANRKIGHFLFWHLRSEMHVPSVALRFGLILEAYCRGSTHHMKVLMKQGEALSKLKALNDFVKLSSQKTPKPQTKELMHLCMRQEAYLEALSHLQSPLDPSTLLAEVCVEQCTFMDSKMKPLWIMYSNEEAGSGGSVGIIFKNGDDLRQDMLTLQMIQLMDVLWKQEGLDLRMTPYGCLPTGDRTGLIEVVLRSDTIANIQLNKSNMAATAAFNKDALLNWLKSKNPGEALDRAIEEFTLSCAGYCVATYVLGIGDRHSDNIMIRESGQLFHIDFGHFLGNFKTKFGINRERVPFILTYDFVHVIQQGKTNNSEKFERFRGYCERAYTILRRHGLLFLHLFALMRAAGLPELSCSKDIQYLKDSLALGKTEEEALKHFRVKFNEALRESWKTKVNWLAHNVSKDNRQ
myristoylated catalytic subunit of human PI3K delta in Rat-1 cells, sequence (O00329 whole entry): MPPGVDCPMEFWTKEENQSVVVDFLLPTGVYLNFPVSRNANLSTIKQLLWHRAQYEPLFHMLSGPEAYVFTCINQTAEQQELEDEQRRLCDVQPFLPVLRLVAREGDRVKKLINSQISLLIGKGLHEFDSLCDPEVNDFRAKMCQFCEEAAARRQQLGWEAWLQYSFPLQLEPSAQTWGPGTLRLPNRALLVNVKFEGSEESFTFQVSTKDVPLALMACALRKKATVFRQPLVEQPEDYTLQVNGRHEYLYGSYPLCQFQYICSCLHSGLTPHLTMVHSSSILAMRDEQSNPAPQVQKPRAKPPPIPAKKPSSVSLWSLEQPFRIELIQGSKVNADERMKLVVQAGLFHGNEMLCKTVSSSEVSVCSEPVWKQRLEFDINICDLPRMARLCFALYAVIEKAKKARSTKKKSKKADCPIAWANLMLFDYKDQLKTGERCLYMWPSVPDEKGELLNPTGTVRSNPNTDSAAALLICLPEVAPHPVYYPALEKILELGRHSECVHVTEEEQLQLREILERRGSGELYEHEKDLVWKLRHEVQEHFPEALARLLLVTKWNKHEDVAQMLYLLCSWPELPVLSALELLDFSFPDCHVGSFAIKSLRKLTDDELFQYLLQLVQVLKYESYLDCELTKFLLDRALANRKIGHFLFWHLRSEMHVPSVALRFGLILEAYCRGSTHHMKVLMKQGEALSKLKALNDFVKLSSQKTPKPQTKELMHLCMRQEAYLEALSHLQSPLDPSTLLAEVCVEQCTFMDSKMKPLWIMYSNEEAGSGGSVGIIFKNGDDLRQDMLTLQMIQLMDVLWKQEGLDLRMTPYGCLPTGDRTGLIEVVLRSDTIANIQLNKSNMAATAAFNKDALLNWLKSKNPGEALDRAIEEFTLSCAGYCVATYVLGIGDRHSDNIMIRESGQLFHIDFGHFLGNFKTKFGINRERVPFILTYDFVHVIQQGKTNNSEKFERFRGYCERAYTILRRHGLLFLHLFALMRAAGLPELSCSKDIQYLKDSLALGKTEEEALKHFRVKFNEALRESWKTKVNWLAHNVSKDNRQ

In the case of `COc1ncc(N2CCOc3cnc(O[C@H]4CCN(C(=O)c5cn(C)cn5)C4)cc32)cc1F` [Example F3, {(S)-3-[1-(5-Fluoro-6-methoxy-pyridin-3-yl)-2,3-dihydro-1H-pyrido[3,4-b][1,4]oxazin-7-yloxy]-pyrrolidin-1-yl}-(1-methyl-1H-imidazol-4-yl)-methanone], the pIC50 is 7.30 in assay [1], 8.22 in assay [2] and 6.47 in assay [3].
Consider `COc1ncc(N2CCOc3ccc(O[C@H]4CCN(C(=O)[C@@H]5CCN(C(C)=O)C5)C4)cc32)cc1C#N` [K, 5-{6-[(S)-1-((R)-1-Acetyl-pyrrolidine-3-carbonyl)-pyrrolidin-3-yloxy]-2,3-dihydro-benzo[1,4]oxazin-4-yl}-2-methoxy-nicotinonitrile], for which the pIC50 in assay [2] is more than 8.52; in assay [3], 6.41.
In the case of `COc1ncc(N2CCOc3ccc(O[C@H]4CCN(C(=O)[C@@H]5CCN(C)C5)C4)cc32)cc1C#N` [L, 2-Methoxy-5-{6-[(S)-1-((R)-1-methyl-pyrrolidine-3-carbonyl)-pyrrolidin-3-yloxy]-2,3-dihydro-benzo[1,4]oxazin-4-yl}-nicotinonitrile], the pIC50 in assay [2] was 7.89; in assay [3], 6.27.
For `Cc1cc(N2CCOc3ccc(O[C@H]4CCN(c5ccccn5)C4)cc32)cnc1S(C)(=O)=O` [M, 4-(6-Methanesulfonyl-5-methyl-pyridin-3-yl)-6-((S)-1-pyridin-2-yl-pyrrolidin-3-yloxy)-3,4-dihydro-2H-benzo[1,4]oxazine], the pIC50 in assay [2] was 8.22; in assay [3] it was 6.52.
The like results for `Cc1cc(N2CCOc3ccc(O[C@H]4CCN(c5ncccn5)C4)cc32)cnc1S(C)(=O)=O` [N, 4-(6-Methanesulfonyl-5-methyl-pyridin-3-yl)-6-((S)-1-pyrimidin-2-yl-pyrrolidin-3-yloxy)-3,4-dihydro-2H-benzo[1,4]oxazine] were, in that order, 7.92 and 6.08.
The like results for `COc1ncc(N2CCOc3ccc(O[C@H]4CCN(CC5CCN(C)CC5)C4)cc32)cc1C#N` [P, 2-Methoxy-5-{6-[(S)-1-(1-methyl-piperidin-4-ylmethyl)-pyrrolidin-3-yloxy]-2,3-dihydro-benzo[1,4]oxazin-4-yl}-nicotinonitrile] were, in that order, 7.14 and 6.02.
As to `COc1ncc(N2CCOc3ccc(O[C@H]4CCN(C(=O)[C@H]5CC[C@H](O)CC5)C4)cc32)cc1C#N` [R, 5-{6-[(S)-1-(4-Hydroxy-cyclohexanecarbonyl)-pyrrolidin-3-yloxy]-2,3-dihydro-benzo[1,4]oxazin-4-yl}-2-methoxy-nicotinonitrile], the pIC50 in assay [2] is 7.96; in assay [3], 6.22.
For `COc1ncc(N2CCOc3ccc(O[C@H]4CCN(C(=O)Cc5ccncc5)C4)cc32)cc1C#N` [S, 2-Methoxy-5-{6-[(S)-1-(2-pyridin-4-yl-acetyl)-pyrrolidin-3-yloxy]-2,3-dihydro-benzo[1,4]oxazin-4-yl}-nicotinonitrile] the same measures were 7.44 and 6.21.
The like results for `COc1ncc(N2CCOc3ccc(O[C@H]4CCN(C(=O)c5cn(C)cn5)C4)cc32)cc1N` [T, {(S)-3-[4-(5-Amino-6-methoxy-pyridin-3-yl)-3,4-dihydro-2H-benzo[1,4]oxazin-6-yloxy]-pyrrolidin-1-yl}-(1-methyl-1H-imidazol-4-yl)-methanone] were, in that order, 7.12 and 5.73.
Turning to `COc1ncc(N2CCOc3ccc(O[C@H]4CCN(C(=O)c5cn(C)cn5)C4)cc32)cc1NS(C)(=O)=O` [U, N-(2-Methoxy-5-{6-[(S)-1-(1-methyl-1H-imidazole-4-carbonyl)-pyrrolidin-3-yloxy]-2,3-dihydro-benzo[1,4]oxazin-4-yl}-pyridin-3-yl)-methanesulfonamide], the pIC50 in assay [2] was 7.82; in assay [3] it was 6.72.
For `COc1ncc(N2CCOc3ccc(O[C@H]4CCN(C(=O)C5CCS(=O)(=O)CC5)C4)c(C)c32)cc1C` [V, (1,1-Dioxo-hexahydro-1lambda*6*-thiopyran-4-yl)-{(S)-3-[4-(6-methoxy-5-methyl-pyridin-3-yl)-5-methyl-3,4-dihydro-2H-benzo[1,4]oxazin-6-yloxy]-pyrrolidin-1-yl}-methanone] the same measures were 7.10 and 5.50.
For `Cc1cc(N2CCOc3ccc(O[C@H]4CCN(C(=O)C5CCOCC5)C4)c(C)c32)cnc1S(C)(=O)=O` [W, {(S)-3-[4-(6-Methanesulfonyl-5-methyl-pyridin-3-yl)-5-methyl-3,4-dihydro-2H-benzo[1,4]oxazin-6-yloxy]-pyrrolidin-1-yl}-(tetrahydro-pyran-4-yl)-methanone] the same measures were 7.25 and 5.53.
For the compound `COc1ncc(N2CCOc3ccc(O[C@H]4CCN(C(=O)C5CCS(=O)(=O)CC5)C4)c(C)c32)cc1C(F)F` [X, {(S)-3-[4-(5-Difluoromethyl-6-methoxy-pyridin-3-yl)-5-methyl-3,4-dihydro-2H-benzo[1,4]oxazin-6-yloxy]-pyrrolidin-1-yl}-(1,1-dioxo-hexahydro-1lambda*6*-thiopyran-4-yl)-methanone], the results for the pIC50 in assay [2] and in assay [3] were 7.21 and 5.45, respectively.
